From US20240083900A1, “PYRAZOLO[1,5-A]PYRAZINE DERIVATIVES AS BTK INHIBITORS” (BIOGEN MA INC., priority 2020, published 2024)

target: BTK (Homo sapiens (Human), UniProt Q06187); test: In Vitro BTK Kinase Assay: Btk-PolyGAT-LS Assay; assay type: biochemical; settings: BTK enzyme 0.25 nM, ATP 10 μM, polyGAT 100 nM, 30 minutes incubation, TRF readout; read-out: IC50
Procedure: The purpose of the BTK in vitro assay is to determine compound potency against BTK through the measurement of IC50. […] For a typical assay, a 24 μL aliquot of a ATP/peptide master mix (final concentration; ATP 10 μM, polyGAT 100 nM) in kinase buffer (10 mM Tris-HCl pH 7.5, 10 mM MgCl2, 200 μM Na3PO4, 5 mM DTT, 0.01% Triton X-100, and 0.2 mg/ml casein) is added to each well. […] The assay is incubated for 30 minutes before being stopped with 28 μL of a 50 mM EDTA solution. […] The plate is covered and incubated for 45 minutes at room temperature.

Sequence of BTK (Q06187 whole entry): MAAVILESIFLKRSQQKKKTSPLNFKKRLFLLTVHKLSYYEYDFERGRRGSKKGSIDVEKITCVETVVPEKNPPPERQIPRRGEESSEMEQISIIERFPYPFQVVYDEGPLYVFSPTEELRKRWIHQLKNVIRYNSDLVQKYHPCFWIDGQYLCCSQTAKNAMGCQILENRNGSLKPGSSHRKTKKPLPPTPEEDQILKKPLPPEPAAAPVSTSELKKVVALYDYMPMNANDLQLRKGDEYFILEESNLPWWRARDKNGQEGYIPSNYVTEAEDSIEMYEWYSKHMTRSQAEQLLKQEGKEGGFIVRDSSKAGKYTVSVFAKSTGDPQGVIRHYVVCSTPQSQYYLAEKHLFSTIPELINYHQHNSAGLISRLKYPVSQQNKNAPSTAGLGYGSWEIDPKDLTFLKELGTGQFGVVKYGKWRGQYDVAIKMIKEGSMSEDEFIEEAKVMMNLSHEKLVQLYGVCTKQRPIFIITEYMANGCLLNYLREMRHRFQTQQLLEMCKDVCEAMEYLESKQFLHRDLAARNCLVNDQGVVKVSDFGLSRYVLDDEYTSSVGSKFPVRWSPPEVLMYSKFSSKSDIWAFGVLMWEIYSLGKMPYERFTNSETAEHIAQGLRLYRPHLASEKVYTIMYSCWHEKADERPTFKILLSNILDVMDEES

Row | SMILES | IC50
1 | C=CC(=O)N1C[C@H]2C[C@@H]1C[C@@H]2Oc1nc(-c2cnn(C)c2)cn2nccc12 [Example 153, 1-((1R,4R,5S)-5-((6-(1-methyl-1H-pyrazol-4-yl)pyrazolo[1,5-a]pyrazin-4-yl)oxy)-2-azabicyclo[2.2.1]heptan-2-yl)prop-2-en-1-one] | 10 to 1000 nM
2 | Cn1cc(-c2cn3nccc3c(Oc3cccc(NC(=O)C#CC4CC4)c3Cl)n2)cn1 [Example 133, N-(2-chloro-3-((6-(1-methyl-1H-pyrazol-4-yl)pyrazolo[1,5-a]pyrazin-4-yl)oxy)phenyl)-3-cyclopropylpropiolamide] | < 1 nM
3 | C/C=C/S(=O)(=O)N1CCC[C@@H](Oc2nc(-c3cnn(C)c3)cn3nccc23)C1 [Example 17, (R,E)-6-(1-methyl-1H-pyrazol-4-yl)-4-((1-(prop-1-en-1-ylsulfonyl)piperidin-3-yl)oxy)pyrazolo[1,5-a]pyrazine] | 10 to 1000 nM
4 | C=CC(=O)N1CCC[C@H](Oc2nc(-c3cnn(C)c3)cn3ncc(Cl)c23)[C@H](F)C1 (racemic) [Example 202, rac-1-((3R,4S)-4-((3-chloro-6-(1-methyl-1H-pyrazol-4-yl)pyrazolo[1,5-a]pyrazin-4-yl)oxy)-3-fluoroazepan-1-yl)prop-2-en-1-one] | 10 to 1000 nM
5 | C=CC(=O)N(C)CC1(COc2nc(-c3cnn(C)c3)cn3nccc23)CC1 [Example 216, N-methyl-N-((1-(((6-(1-methyl-1H-pyrazol-4-yl)pyrazolo[1,5-a]pyrazin-4-yl)oxy)methyl)cyclopropyl)methyl)acrylamide] | 10 to 1000 nM
6 | C=CC(=O)N1CCC2(CC1)CC(Oc1nc(-c3cnn(C)c3)cn3nccc13)C2 [Example 208, 1-(2-((6-(1-methyl-1H-pyrazol-4-yl)pyrazolo[1,5-a]pyrazin-4-yl)oxy)-7-azaspiro[3.5]nonan-7-yl)prop-2-en-1-one] | 10 to 1000 nM
7 | CN(C)C/C=C/C(=O)N(CC(F)F)[C@H]1CC[C@@H](Oc2nc(-c3cnn(C)c3)cn3nccc23)C1 [Example 147, (E)-N-(2,2-difluoroethyl)-4-(dimethylamino)-N-((1S,3R)-3-((6-(1-methyl-1H-pyrazol-4-yl)pyrazolo[1,5-a]pyrazin-4-yl)oxy)cyclopentyl)but-2-enamide] | 1 to 10 nM
8 | C=CC(=O)N1CCCN(Cc2nc(-c3cnn(C)c3)cn3nccc23)CC1 [Example 90, 1-(4-((6-(1-methyl-1H-pyrazol-4-yl)pyrazolo[1,5-a]pyrazin-4-yl)methyl)-1,4-diazepan-1-yl)prop-2-en-1-one] | 10 to 1000 nM
9 | C#CC(=O)N1CCC[C@H](COc2nc(-c3cnn(C)c3)cc3nccn23)C1 [Example 46] | 1 to 10 nM
10 | C=CC(=O)N1CCC(COc2nc(-c3cnn(C)c3)cc3nccn23)C1 (centres unmarked) [Example 42] | 10 to 1000 nM
11 | C=CC(=O)N1C[C@H]2C[C@@H](C1)[C@H]2COc1cc(-c2cnn(C)c2)cn2ncc(F)c12 (single isomer, unassigned) [Example 84, 1-((1R,5S,6s) or (1R,5S,6r)-6-(((3-fluoro-6-(1-methyl-1H-pyrazol-4-yl)pyrazolo[1,5-a]pyridin-4-yl)oxy)methyl)-3-azabicyclo[3.1.1]heptan-3-yl)prop-2-en-1-one] | < 1 nM
12 | C=CC(=O)N1C[C@@H]2C[C@H](Oc3nc(-c4cnn(C)c4)cn4nccc34)C[C@@H]21 (racemic) [Example 210, rac-1-((1S,3S,5S)-3-((6-(1-methyl-1H-pyrazol-4-yl)pyrazolo[1,5-a]pyrazin-4-yl)oxy)-6-azabicyclo[3.2.0]heptan-6-yl)prop-2-en-1-one] | 10 to 1000 nM
13 | C#CC(=O)N1CCC[C@@H](Oc2nc(-c3cnn(C)c3)cc3nccn23)C1 [Example 53] | 1 to 10 nM
14 | C=CC(=O)N(C)[C@H]1C[C@](C)(Oc2nc(-c3cnn(C)c3)cn3nccc23)[C@H]1C (single isomer, unassigned) [Example 106] | 10 to 1000 nM
15 | C=CC(=O)N1CCC[C@@H](Oc2nc(-c3cnc(C)s3)cn3nccc23)CC1 [Example 77, (R)-1-(4-((6-(2-methylthiazol-5-yl)pyrazolo[1,5-a]pyrazin-4-yl)oxy)azepan-1-yl)prop-2-en-1-one] | < 1 nM
16 | C=CC(=O)N1CCCC(Oc2nc(-c3cn(C)nc3C)cn3nccc23)CC1 (single isomer, unassigned) [Example 69 E2, 1-[4-[6-(1,3-dimethylpyrazol-4-yl)pyrazolo[1,5-a]pyrazin-4-yl]oxyazepan-1-yl]prop-2-en-1-one] | 10 to 1000 nM
17 | CC#CC(=O)NC1CCCC(Oc2nc(-c3cnn(C)c3)cc3nccn23)C1 (centres unmarked) [Example 52] | 1 to 10 nM
18 | C=CC(=O)NC1CN(c2cc(-c3cnn(C)c3)cn3nccc23)CC(F)(F)C1 (centres unmarked) [Example 89, N-(5,5-difluoro-1-(6-(1-methyl-1H-pyrazol-4-yl)pyrazolo[1,5-a]pyridin-4-yl)piperidin-3-yl)acrylamide] | 10 to 1000 nM

Row | SMILES | IC50
19 | C#CC(=O)N1CCC[C@H](Oc2nc(-c3cnn(C)c3)cc3nccn23)CC1 (single isomer, unassigned) [Example 37, (R)- or (S)-1-(4-((7-(1-methyl-1H-pyrazol-4-yl)imidazo[1,2-c]pyrimidin-5-yl)oxy)azepan-1-yl)prop-2-yn-1-one] | 1 to 10 nM
20 | Cc1ncc(-c2cn3nccc3c(O[C@@]3(C)C[C@@H]4[C@H]3CCN4C(=O)C3=CCC3)n2)s1 [Example 196, Cyclobut-1-en-1-yl((1R,5R,6S)-6-methyl-6-((6-(2-methylthiazol-5-yl)pyrazolo[1,5-a]pyrazin-4-yl)oxy)-2-azabicyclo[3.2.0]heptan-2-yl)methanone] | 10 to 1000 nM
21 | C=CC(=O)N1CC2CCC(N(C)c3cc(-c4cnn(C)c4)cn4nccc34)C2C1 (centres unmarked) [Example 154, 1-(4-(methyl(6-(1-methyl-1H-pyrazol-4-yl)pyrazolo[1,5-a]pyridin-4-yl)amino)hexahydrocyclopenta[c]pyrrol-2(1H)-yl)prop-2-en-1-one] | 10 to 1000 nM
22 | C=CC(=O)N(C)[C@H]1C[C@H](Oc2nc(-c3cnn(C)c3)cn3nccc23)C1(C)C (racemic) [Example 218, rac-N-((trans)-2,2-dimethyl-3-((6-(1-methyl-1H-pyrazol-4-yl)pyrazolo[1,5-a]pyrazin-4-yl)oxy)cyclobutyl)-N-methylacrylamide] | 1 to 10 nM
23 | C=CC(=O)N1CCC(CNc2nc(-c3cnn(C)c3)cn3nccc23)CC1 [Example 18, 1-(4-(((6-(1-methyl-1H-pyrazol-4-yl)pyrazolo[1,5-a]pyrazin-4-yl)amino)methyl)piperidin-1-yl)prop-2-en-1-one] | 1 to 10 nM
24 | C=CC(=O)N1C[C@@H]2C[C@H]1C[C@H]2Oc1nc(-c2cnn(C)c2)cn2nccc12 [Example 152, 1-((1S,4S,5R)-5-((6-(1-methyl-1H-pyrazol-4-yl)pyrazolo[1,5-a]pyrazin-4-yl)oxy)-2-azabicyclo[2.2.1]heptan-2-yl)prop-2-en-1-one] | 1 to 10 nM
25 | C=CC(=O)N1C[C@@H]2C[C@@H](Oc3nc(-c4cnn(C)c4)cn4nccc34)C[C@@H]21 (racemic) [Example 209, rac-((1S,3R,5S)-3-((6-(1-methyl-1H-pyrazol-4-yl)pyrazolo[1,5-a]pyrazin-4-yl)oxy)-6-azabicyclo[3.2.0]heptan-6-yl)prop-2-en-1-one] | < 1 nM
26 | CC#CC(=O)N1CCC[C@@H](COc2nc(-c3cnn(C)c3)cc3nccn23)C1 [Example 51] | 10 to 1000 nM
27 | C=CC(=O)N1CCC[C@@H](Oc2nc(-c3cc(C)ns3)cn3nccc23)CC1 [Example 78, (R)-1-(4-((6-(3-methylisothiazol-5-yl)pyrazolo[1,5-a]pyrazin-4-yl)oxy)azepan-1-yl)prop-2-en-1-one] | 1 to 10 nM
28 | CC#CC(=O)N1CC(C)(C)OC(C)(COc2nc(-c3cnn(C)c3)cn3nccc23)C1 (single isomer, unassigned) [Example 122, 1-(2,2,6-trimethyl-6-(((6-(1-methyl-1H-pyrazol-4-yl)pyrazolo[1,5-a]pyrazin-4-yl)oxy)methyl)morpholino)but-2-yn-1-one] | 10 to 1000 nM
29 | CC#CC(=O)N(C)[C@@H]1CC[C@@H]2C[C@]2(Oc2nc(-c3cnn(C)c3)cn3nccc23)C1 (single isomer, unassigned) [Example 114] | 10 to 1000 nM
30 | CN(C(=O)C1=CCC1)[C@H]1CC[C@@H](Oc2nc(-c3cnn(C)c3)cn3nccc23)C1 (racemic) [Example 149, rac-N-methyl-N-((1R,3S)-3-((6-(1-methyl-1H-pyrazol-4-yl)pyrazolo[1,5-a]pyrazin-4-yl)oxy)cyclopentyl)cyclobut-1-ene-1-carboxamide] | 1 to 10 nM
31 | C=CC(=O)NC1CCCC(Oc2nc(-c3cnn(C)c3)cc3nccn23)C1 (centres unmarked) [Example 48] | 1 to 10 nM
32 | CN(C)C/C=C/C(=O)N[C@H]1CCC[C@@H](Oc2nc(-c3cnn(C)c3)cn3ncc(F)c23)C1 [Example 94, (E)-4-(dimethylamino)-N-((1S,3R)-3-((3-fluoro-6-(1-methyl-1H-pyrazol-4-yl)pyrazolo[1,5-a]pyrazin-4-yl)oxy)cyclohexyl)but-2-enamide] | 10 to 1000 nM
33 | CC#CC(=O)N(CCF)[C@H]1C[C@H](Oc2nc(-c3cnn(C)c3)cn3nccc23)C1 [Example 223, N-(2-fluoroethyl)-N-((trans)-3-((6-(1-methyl-1H-pyrazol-4-yl)pyrazolo[1,5-a]pyrazin-4-yl)oxy)cyclobutyl)but-2-ynamide] | 10 to 1000 nM
34 | C=CC(=O)N1CCC[C@H](Nc2nc(-c3cnn(C)c3)cn3nccc23)CC1 (single isomer, unassigned) [Example 161] | 10 to 1000 nM
35 | C=CC(=O)N(C)[C@H]1COC[C@H](Oc2nc(-c3cnn(C)c3)cn3nccc23)C1 (racemic) [Example 97, rac-N-methyl-N-((3R,5R)-5-((6-(1-methyl-1H-pyrazol-4-yl)pyrazolo[1,5-a]pyrazin-4-yl)oxy)tetrahydro-2H-pyran-3-yl)acrylamide] | 10 to 1000 nM
